According to patent US4172896A, “Methane-sulfonamide derivatives, the preparation thereof and composition comprising the same” (Dainippon Pharmaceutical Co., Ltd., priority 1978, dated 1979):

How the values were obtained:
in vivo = settings: mouse; for LD50 at 168 h: mortality observed for 7 days; for selectivity ratio: read-out: Safety index
Excerpt: Male mice of STD-ddY strain weighing 20-22 g were used. The test compounds were orally administered to the test animals (each group: 10 mice) in the form of a homogeneous suspension in 0.5% tragacanth solution.

[1] = Anti-maximal electroshock seizure activity in mice; format: in vivo, mice (male, STD-ddY strain); settings: Mus musculus, oral, MES 60 Hz 25 mA 0.2 s, at peak effect time
Excerpt: Male mice of STD-ddY strain were used. The test compounds were orally administered to the test animals (each group: 10 mice) in the form of a homogeneous suspension in a 0.5% tragacanth solution.
Maximal electroshock seizures (MES) were induced by the method of Swinyard [cf. J. Amer. Pharm. Assoc., Vol. 38, page 201 (1949)]. The animals were subjected to 60 Hz current of 25 mA for 0.2 second delivered through corneal electrodes after administration of the test compounds. […] J. Pharmacol. Exp. Ther., Vol. 96, page 99 (1947)].

[2] = Effect on coordinated motor movements in mice (rotarod); settings: for TD50 / selectivity ratio: mouse, in vivo, po; for NTD50 (median neurotoxic dose): oral, mice, rotarod, at peak effect time
Procedure: Mice trained to continue coordinated motor movements for 100 seconds or more on a rotarod apparatus (2.5 cm in diameter at 11 RPM) were used [J. Amer. Pharm. […] Impairment of coordinated motor movements was defined as the inability of the animals to retain on the rotarod for a 100 second test period. After oral administration of the test compounds rotarod performance was tested at intervals of 1 hour for 6 hours. Median neurotoxic dose (NTD50), i.e. the does which causes fall from rotarod in 50% of animals, was calculated by the method of Litchfield and Wilcoxon.

Row | SMILES | ED50 [1] | other results
1 | NC(=O)N1c2ccccc2C=Cc2ccccc21 [Carbamazepine, 5H-dibenz[b,f]azepine-5-carboxamide, reference compound] | 13.2 mg/kg | LD50 at 168 h (in vivo; oral, mice): 1700 mg/kg; selectivity ratio (in vivo; po): 129; TD50 [2]: 141 mg/kg; selectivity ratio [2]: 10.7
2 | CCNS(=O)(=O)Cc1noc2ccccc12 [Test compound 3] | 38.9 mg/kg | 
3 | O=C1NC(=O)C(c2ccccc2)(c2ccccc2)N1 [Diphenylhydantoin, 5,5-diphenyl-2,4-imidazolidinedione, reference compound] | 7.6 mg/kg | TD50 [2]: 72 mg/kg
4 | CCNS(=O)(=O)Cc1noc2ccc(F)cc12 [compound 12] | 31.6 mg/kg | 
5 | CN(C)S(=O)(=O)Cc1noc2ccc(F)cc12 [compound 13] | 32 mg/kg | 
6 | CNS(=O)(=O)Cc1noc2ccc(F)cc12 [compound 11] | 34.5 mg/kg | 
7 | NS(=O)(=O)Cc1noc2ccc(Br)cc12 [compound 14] | 13.5 mg/kg | 
8 | CNS(=O)(=O)Cc1noc2ccc(Cl)cc12 [Test compound 7] | ~20 mg/kg | 
9 | NS(=O)(=O)Cc1noc2cc(F)ccc12 [compound 18] | 18.9 mg/kg | 
10 | NS(=O)(=O)Cc1noc2ccc(Cl)cc12 [compound 6] | 14.2 mg/kg | 
11 | CNS(=O)(=O)Cc1noc2ccccc12 [compound 2] | 22.3 mg/kg | 
12 | CNS(=O)(=O)Cc1noc2ccc(Br)cc12 [compound 15] | 15 mg/kg | 
13 | CC(C)NS(=O)(=O)Cc1noc2ccc(Br)cc12 [compound 17] | 22.3 mg/kg | 
14 | NS(=O)(=O)Cc1noc2ccc(F)cc12 [Test compound 10, 5-Fluoro-3-sulfamoylmethyl-1,2-benzisoxazole] |  | selectivity ratio (in vivo; LD50/ED50 of anti-MES, mice, oral): 86.7; LD50 at 168 h (in vivo; oral, mice): 1260 mg/kg; selectivity ratio [2]: 10.6; NTD50 (median neurotoxic dose) [2]: 154 mg/kg, p.o
15 | CN(C)S(=O)(=O)Cc1noc2ccccc12 [compound 5] | 37.2 mg/kg | 
16 | NS(=O)(=O)Cc1noc2ccccc12 [compound 1] | 19.6 mg/kg | LD50 at 168 h (in vivo; oral, mice): 1830 mg/kg; selectivity ratio (in vivo; po): 93.3; selectivity ratio [2]: 14.9; NTD50 (median neurotoxic dose) [2]: 292 mg/kg, p.o
17 | NC(=O)NC(=O)Cc1ccccc1 [Phenacemide, phenylacetylurea, reference compound] | 61.2 mg/kg | 
18 | CNS(=O)(=O)Cc1nc2ccccc2o1 [compound 20] | 17.2 mg/kg | 
19 | CCNS(=O)(=O)Cc1noc2ccc(Br)cc12 [compound 16] | 18.3 mg/kg | 
20 | NS(=O)(=O)Cc1nc2cc(Cl)ccc2o1 [compound 23] | 30.3 mg/kg | 
21 | CCCNS(=O)(=O)Cc1nc2ccccc2o1 [compound 22] | 31.2 mg/kg | 
22 | CN(C)S(=O)(=O)Cc1nc2ccccc2o1 [compound 21] | 34 mg/kg | 
23 | NS(=O)(=O)Cc1nc2ccccc2o1 [compound 19] | 12 mg/kg | LD50 at 168 h (in vivo; oral, mice): ~1800 mg/kg; TD50 [2]: 168 mg/kg; selectivity ratio [2]: 14
24 | CN(C)S(=O)(=O)Cc1noc2ccc(Cl)cc12 [compound 9] | 56.2 mg/kg | 
25 | CCNS(=O)(=O)Cc1noc2ccc(Cl)cc12 [compound 8] | 21.3 mg/kg | 
26 | CC(C)NS(=O)(=O)Cc1noc2ccccc12 [Test compound 4] | 56 mg/kg | 
27 | CCC1(c2ccccc2)C(=O)NCNC1=O [Primidone, 5-ethyl-5-phenylhexahydropyrimidine-4,6-dione, reference compound] | 21.7 mg/kg | 
